Assay results from patent US20250361271A1, “PEPTIDE AGONIST” (THE UNIVERSITY OF BIRMINGHAM, priority 2022, published 2025).
pIC50: −log10 of the molar value. Where a SMILES comes first, the peptide text is derived from it. [ ]: non-standard residue; d: D form. d(pGlu) = O=C1CC[C@H](C(=O)O)N1; pGlu = O=C1CC[C@@H](C(=O)O)N1; Aib = CC(C)(N)C(=O)O

Tests used:
[1] = T1/2 in plasma (mouse); type: in vitro ADME; details: for stability compared with PEPITEM: in mouse plasma, human plasma, and or mouse blood; for half-life: mouse, plasma, 1 μM peptide, 37° C.
Excerpt: Take all measurements in duplicate.

[2] = type: in vitro ADME, pig
Protocol: Pig eyes were treated with either […] or one of TVS (reverse sequence of SVT comprising amino acids in D-isomeric forms), […] and QGA, derived from the […] sequence. The eyes were then incubated in a dark humified chamber. The eyes were dissected, and the vitreous humour and retina were harvested. The samples were sonicated to break up the tissue and purified using a C18 column. Once purified, the samples were digested and analysed by mass spectrometry.

[3] = test system: PBLs on cytokine stimulated HDBECs; details: for % Inhibition (3 nM): 3 nM peptide; for % Inhibition (3 nM) / % Inhibition (0.3 nM): inhibition of PBL transmigration (as a percentage of adherent cells); for effectiveness in inhibiting PBL transmigration compared with PEPITEM (% Inhibition at 0.3 and/or 3 nM): PEPITEM 41.90; for % Inhibition (0.3 nM): 0.3 nM peptide
Protocol: Blood samples were obtained from consensual healthy donors and were collected in EDTA tubes (Sigma-Aldrich). […] 5 ml of blood was layered on top of the density gradient, and was centrifuged at 2500 rpm for 45 minutes. […] The PBMCs were washed twice for 7 minutes at 1500 rpm. Peripheral blood lymphocytes (PBLs) were isolated via panning PBMCs onto a culture flask for 30 minutes at 37° C., allowing monocytes to adhere.
HDBECS defrosted at 37° C. in a 25 cm^2 cell culture flask in 10 ml of media were dissociated using EDTA (Sigma-Aldrich) and Trypsin (Gibco) and seeded on 10 wells in a 12-well tissue culture plates (Falcon) and left to adhere at 37° C. After 24 hours, confluent endothelial layers were cytokine stimulated using 100 U/ml TNF-α (Sigma-Aldrich) and 10 ng/ml IFN-γ (Peprotech) for 24 hours at 37° C. The peptide treatment of the 1×10^6 cells/ml PBLs consisted of adding the peptides immediately before use. […] 1×10^6 PBLs were added to each well and incubated at 37° C., allowing PBLs to adhere to migrate across the endothelium. […] Cells were then fixed with 2% glutaraldehyde for 10 minutes and then imaged using phase-contrast microscopy via an inverted bright-field microscope at 20× magnification.
Imaging of the PBL migration assay was carried out using ImagePro 7 software (Media Cybernetics). Surface adherent cells were categorised as being phase-bright, and transmigrated cells were categorised as phase-dark with altered morphology, appearing as being under the endothelial layer. Images were taken at 5 different fields of each well, and an average of counted adherent and migrated PBLs was calculated.
The same methods described for the in vitro transmigration assay and analysis were used, and PBL transmigration was calculated as a percentage of adherent cells. Peptides were added to the PBLs at concentrations ranging from 0.0001-500 ng/ml on the cytokine stimulated HDBECs and the resulting PBL transmigration (as a percentage of adherent cells) was plotted as a function of log10 of the peptide concentration.
The peptides were added at concentration of 20 ng/ml and run alongside untreated PBL (PBL0) and scrambled protein to analyse their effects on adhesion and transmigration.

[4] = T1/2 in blood (mouse)
Protocol: Store at −20° C. or on ice. • 2) Thaw the blood and spin in a centrifuge at 1500×g for 10 minutes at room temperature. • 3) Prepare stock solution of the peptide at 10 mM in DMSO or PBS and dilute solutions by adding 3 μL of 10 mM stock to 297 μL DMSO or PBS (100 μM stock for a final 1 μM concentration). • 4) Add 550 μL blood to an incubation tube and separately add 4 μL of peptide stock solution to an incubation tube. Warm the incubation tubes (5 minutes, 37° C., with shaking). • 5) After warming, add 396 μL of warmed blood to warmed peptide (time=0). Mix well and shake the tube containing the mixed sample (37° C., 1400×g). • 6) At 2, 5, 15, 30, 45 and 60 minutes after contacting the peptide and blood, collect 40 μL of the sample into pre-prepared quench tubes. • 7) Analyse the sample at each time point by mass spectrometry. Take all measurements in duplicate.
The samples were analysed and the T1/2 values were calculated by XenoGesis. The T1/2 values correspond to the time taken for the concentration of the peptide in the blood or plasma to be reduced by 50%.

[5] = test system: primary murine calvarial osteoblasts; test: Alkaline phosphatase activity, murine osteoblasts; type: cell-based, mouse; details: vs untreated cells
Protocol: Skin was removed from around calvaria using forceps, and the calvaria was dissected out and cleaned of any contaminating tissue. Calvaria were added to αMEM media supplemented with 1 mg/ml of collagenase d (Roche, Basel, Switzerland, COLLD-RO). Tubes were then agitated at 37° C. for 10 minutes and the media discarded. αMEM media supplemented with 1 mg/ml of collagenase d was again added to calvaria and shaken at 37° C. for 30 minutes. Media (containing cells) was then removed and kept on ice. The calvaria were then again shaken at 37° C. for 10 minutes in 1.5 ml of αMEM media supplemented with 5 μM EDTA (Sigma-Aldrich, E7889) and the cell containing media transferred to the sample on ice, pooling the cells. […] Cells on ice were then spun down at 300 g for 4 minutes, resuspended in 1 ml of Basal media and counted using a haemocytometer. […] Mineralisation was assessed by quantifying the level of alkaline phosphate (ALP) activity (absorbance at 405 nm) per condition normalized to the absorbance generated by the untreated control (control on the graph). […] The plate was wrapped in foil and left to run for 45 minutes at 37° C. in an incubated shaker (SciQuip; Shropshire, UK) before being quantified using a Synergy HT plate reader (BioTek) with absorbance set at 405 nm.

[6] = test system: primary human osteoblasts; test: Alkaline phosphatase activity, human osteoblasts; type: cell-based; details: 10 ng/ml peptide, 4 days, vs untreated cells, FIG. 5a
Protocol: Human osteoarthritis subchondral joint tissue was obtained at the time of total knee and hip joint replacement operations from the Royal Orthopaedic Hospital (Birmingham). To isolate primary osteoblasts, cartilage was removed from the femoral condyles and tibial plateaus and cut into 2 mm^2 pieces. Samples were kept in media and cleaned of fat. Media contains DMEM (Sigma, D6546), FCS (10%), GPS (1%), Non-essential amino acid (1%; Sigma, M7145), β10 glycerophosphate (2 mM; Sigma, G9422) and L-Ascorbic acid (50 μg/ml; Sigma, A5960). Bone chips were placed in T75 flasks in 10 mL of media, replacing media every 2-3 days. […]
Osteoblasts (8×10^3 cells/well) were cultured in mineralisation differentiation media in the presence or absence of peptide (10 ng/ml) for 4 days. Mineralisation was assessed by quantifying the level of alkaline phosphate (ALP) activity (absorbance at 405 nm) per condition normalized to the absorbance generated by the untreated control (control on the graph).
To measure ALP activity, cells were washed in PBS before being lysed in 100 μl of RIPA buffer (Thermo Fisher, R^0278) for 15 minutes on ice. […] The plate was wrapped in foil and left to run for 45 minutes at 37° C. in an incubated shaker (SciQuip; Shropshire, UK) before being quantified using a Synergy HT plate reader (BioTek) with absorbance set at 405 nm.

Row | Compound | half-life [1] [h] | % Inhibition (3 nM) [3] [%] | % Inhibition (0.3 nM) [3] [%] | also measured
1 | CC(C)[C@@H](NC(=O)[C@H](N)[C@H](C)O)C(=O)N[C@H](CO)C(N)=O (relative stereo) [SEQ ID NO. 11, H-T*V*S*-NH2] | > 3 | – | – | stability compared with PEPITEM [1]: at least as stable; eye tissue in which the peptide was found by mass spectrometry [2]: Retina only; pIC50 [3]: 10.62
2 | CC(=O)N[C@@H](CO)C(=O)N[C@H](C(=O)N[C@H](C(=O)O)[C@@H](C)O)C(C)C [SEQ ID NO. 3, Ac-SVT] (Ac-Ser-Val-Thr-OH) | – | 36.80 | – | –
3 | CC(=O)N[C@@H](CO)C(=O)N[C@H](C(=O)N[C@H](C(N)=O)[C@@H](C)O)C(C)C [SEQ ID NO. 5, Ac-SVT-NH2] (Ac-Ser-Val-Thr-NH2) | 1.98 | 42.50 | – | effectiveness in inhibiting PBL transmigration compared with PEPITEM (% Inhibition at 0.3 and/or 3 nM) [3]: more effective
4 | CC(C)[C@H](NC(=O)[C@@H](N)[C@@H](C)O)C(=O)N[C@H](C(N)=O)[C@@H](C)O [SEQ ID NO. 8, H-TVT-NH2] (H-Thr-Val-Thr-NH2) | 0.283 | 48.19 | 45.47 | effectiveness in inhibiting PBL transmigration compared with PEPITEM (% Inhibition at 0.3 and/or 3 nM) [3]: more effective
5 | CC(C)[C@H](NC(=O)[C@@H](N)CO)C(=O)N[C@@H](CO)C(N)=O [SEQ ID NO. 9, H-SVS-NH2] (H-Ser-Val-Ser-NH2) | 1.72 | 38.10 | 42.51 | effectiveness in inhibiting PBL transmigration compared with PEPITEM (% Inhibition at 0.3 and/or 3 nM) [3]: more effective
6 | COC[C@H](N)C(=O)N[C@H](C(=O)N[C@H](C(N)=O)[C@@H](C)O)C(C)C [SEQ ID NO. 12, H-S(OMe)VT-NH2] (H-Ser(Me)-Val-Thr-NH2) | – | 62.27 | 34.72 | effectiveness in inhibiting PBL transmigration compared with PEPITEM (% Inhibition at 0.3 and/or 3 nM) [3]: more effective
7 | CCCCCCNC(=O)[C@@H](NC(=O)[C@@H](NC(=O)[C@@H](N)CO)C(C)C)[C@@H](C)O [SEQ ID NO. 13, H-SVT-NH-Hexyl] | – | 12.83 | 23.56 | –
8 | CC[C@H](C)[C@H](NC(=O)[C@@H](N)CO)C(=O)N[C@H](C(N)=O)[C@@H](C)O [SEQ ID NO. 14, H-SIT-NH2] (H-Ser-Ile-Thr-NH2) | – | 28.23 | 3.40 | –
9 | CC(C)C[C@H](NC(=O)[C@@H](N)CO)C(=O)N[C@H](C(N)=O)[C@@H](C)O [SEQ ID NO. 15, H-SLT-NH2] (H-Ser-Leu-Thr-NH2) | 0.117 | 20.75 | 46.00 | effectiveness in inhibiting PBL transmigration compared with PEPITEM (% Inhibition at 0.3 and/or 3 nM) [3]: more effective
10 | C[C@@H](O)[C@H](NC(=O)[C@H](Cc1ccccc1)NC(=O)[C@@H](N)CO)C(N)=O [SEQ ID NO. 16, H-SFT-NH2] (H-Ser-Phe-Thr-NH2) | – | 33.33 | 39.78 | –
11 | C[C@@H](O)[C@H](NC(=O)[C@H](Cc1ccc(O)cc1)NC(=O)[C@@H](N)CO)C(N)=O [SEQ ID NO. 18, H-SYT-NH2] (H-Ser-Tyr-Thr-NH2) | 0.283 | 42.83 | 39.18 | effectiveness in inhibiting PBL transmigration compared with PEPITEM (% Inhibition at 0.3 and/or 3 nM) [3]: more effective
12 | CCNC(=O)[C@H](C)NC(=O)CNC(=O)[C@@H]1CCC(=O)N1 [SEQ ID NO. 22, pEGA-NH-Ethyl] ([pGlu]-Gly-Ala-NHEt) | > 3 | – | 35.40 | –
13 | C[C@H](NC(=O)CNC(=O)[C@@H]1CCC(=O)N1)C(N)=O [SEQ ID NO. 23, pEGA-NH2] ([pGlu]-Gly-Ala-NH2) | > 3 | – | 54.50 | pIC50 [3]: 11.49; effectiveness in inhibiting PBL transmigration compared with PEPITEM (% Inhibition at 0.3 and/or 3 nM) [3]: more effective; potency at inhibiting the transmigration of T cells compared with PEPITEM (IC50) ([3]; PEPITEM IC50 0.02): more potent
14 | CCNC(=O)[C@H](C)NC(=O)CNC(=O)[C@H](CCC(N)=O)NC(C)=O [SEQ ID NO. 24, Ac-QGA-NH-Ethyl] (Ac-Gln-Gly-Ala-NHEt) | – | – | 50.00 | effectiveness in inhibiting PBL transmigration compared with PEPITEM (% Inhibition at 0.3 and/or 3 nM) [3]: more effective
15 | CC(=O)N[C@@H](CCC(N)=O)C(=O)NCC(=O)NC(C)(C)C(=O)O [SEQ ID NO. 25, Ac-QGAib] (Ac-Gln-Gly-[Aib]-OH) | – | – | 32.00 | –
16 | CC(=O)N[C@H](CCC(N)=O)C(=O)NCC(=O)N[C@H](C)C(N)=O [SEQ ID NO. 26, Ac-Q*GA*-NH2] | > 3 | – | – | stability compared with PEPITEM [1]: at least as stable; pIC50 [3]: 10.74
17 | C[C@@H](NC(=O)CNC(=O)[C@H]1CCC(=O)N1)C(N)=O [SEQ ID NO. 28, pE*GA*-NH2] ([d(pGlu)]-Gly-[dA]-NH2) | – | – | – | half-life [4]: 1.17 h
18 | CNC(=O)[C@H](C)NC(=O)CNC(=O)[C@@H]1CCC(=O)N1 [SEQ ID NO. 29, pEGA-NHMe] ([pGlu]-Gly-Ala-NHMe) | – | 43.35 | 40.89 | half-life ([4]; whole blood): 1.62 h
19 | C[C@H](NC(=O)CNC(=O)[C@@H]1CCC(=O)N1)C(=O)N(C)C [SEQ ID NO. 30, pEGA-N(Me)2] ([pGlu]-Gly-Ala-NMe2) | – | 42.65 | 44.70 | half-life ([4]; whole blood): > 3 h
20 | CC(C)[C@H](NC(=O)CNC(=O)[C@@H]1CCC(=O)N1)C(N)=O [SEQ ID NO. 31, pEGV-NH2] ([pGlu]-Gly-Val-NH2) | – | 50.27 | 49.94 | half-life ([4]; whole blood): > 3 h
21 | CC(C)C[C@H](NC(=O)CNC(=O)[C@@H]1CCC(=O)N1)C(N)=O [SEQ ID NO. 32, pEGL-NH2] ([pGlu]-Gly-Leu-NH2) | – | 58.16 | 25.34 | –
22 | NC(=O)[C@H](Cc1ccccc1)NC(=O)CNC(=O)[C@@H]1CCC(=O)N1 [SEQ ID NO. 33, pEGF-NH2] ([pGlu]-Gly-Phe-NH2) | – | 42.84 | 49.15 | half-life ([4]; whole blood): 2.43 h
23 | EGA | – | – | – | eye tissue in which the peptide was found by mass spectrometry [2]: Retina only
24 | ELSNEER [SEQ ID NO. 47, reference compound] | – | – | – | ALP activity (mineralisation), murine osteoblasts ([5]; 10 ng/ml peptide, 4 days, FIG. 5a): did not exhibit a statistically significant change in osteoblast activity; ALP activity (mineralisation), human osteoblasts [6]: did not exhibit a statistically significant change in osteoblast activity
25 | H-S*V*T*-NH2 [SEQ ID NO. 10] | – | 39.51 | 24.76 | –
26 | H-S*VT-NH2 [SEQ ID NO. 7] | – | – | 9.50 | –
27 | SVTQAA [SEQ ID NO. 40] | – | – | – | PBL transmigration ([3]; PBL0 37%, FIG. 4): 23%; effect on PBL transmigration ([3]; compared to untreated PBL (PBL0), 20 ng/ml): significant (p<0.01) fall in PBL transmigration
28 | TSV | – | – | – | ALP activity (maturation mineralisation), murine osteoblasts ([5]; 8 days, FIG. 5b): significantly increased
